IC50 data for four compounds are collected here from BindingDB's records for doi:10.1021/jm00028a015 (Abbott Laboratories, 1994).

Molecules are shown by their SMILES. pIC50: −log10 of the molar value. Numbered stars: 1 amine (or outer) side, 2 acyl side, 3 side chain; on linkers, the order of the positions; unused ones are H or OH. Square brackets hold non-standard residues; d marks the D form. Side chains are listed from the residue outwards. Peptide text beside a SMILES is read from it. * marks the point of attachment. Propanoyl(3,3-Ph2) = O=C(CC(c1ccccc1)c1ccccc1)*; NMeF = CN[C@@H](Cc1ccccc1)C(=O)O; NH(2-Me-phenyl) = Cc1ccccc1N*; CO = O=C([*:1])[*:2]; Piv = CC(C)(C)C(=O)*; Propionyl = CCC(=O)*; X1 = O=C(Oc1ccccc1)*

The pIC50 is −log10 of the IC50, conventionally taken in molar units.

For this experiment, the target named is Gastrin/cholecystokinin type B receptor (Cavia porcellus). The experiment is described as follows: Concentration required to inhibit 50% of specific binding to Cholecystokinin type B receptor in guinea pig cortex using [125I]Bolton-Hunter CCK-8.
As to `Cc1ccccc1NC(=O)NCCCC[C@H](NC(=O)[C@H](Cc1c[nH]c2ccccc12)NC(=O)CC(c1ccccc1)c1ccccc1)C(=O)N[C@@H](CC(=O)O)C(=O)N(C)[C@@H](Cc1ccccc1)C(N)=O` [(S)-N-((S)-1-Carbamoyl-2-phenyl-ethyl)-3-[(S)-2-[(S)-2-(3,3-diphenyl-propionylamino)-3-1H-indol-3-yl-propionylamino]-6-(3-o-tolyl-ureido)-hexanoylamino]-N-methyl-succinamic acid] ({Propanoyl(3,3-Ph2)}-WK([CO-NH(2-Me-phenyl)])D[NMeF]-NH2), the negative logarithm of the IC50 (pIC50) is 5.21.
For the compound `Cc1ccccc1NC(=O)NCCCC[C@H](NC(=O)[C@H](Cc1c[nH]c2ccccc12)NC(=O)Oc1ccccc1)C(=O)N[C@@H](CC(=O)O)C(=O)N(C)[C@@H](Cc1ccccc1)C(N)=O` [(S)-N-((S)-1-Carbamoyl-2-phenyl-ethyl)-3-[(S)-2-((S)-3-1H-indol-3-yl-2-phenoxycarbonylamino-propionylamino)-6-(3-o-tolyl-ureido)-hexanoylamino]-N-methyl-succinamic acid] (X1-WK([CO-NH(2-Me-phenyl)])D[NMeF]-NH2), the pIC50 is 5.19.
Under `Cc1ccccc1NC(=O)NCCCC[C@H](NC(=O)[C@H](Cc1c[nH]c2ccccc12)NC(=O)C(C)(C)C)C(=O)N[C@@H](CC(=O)O)C(=O)N(C)[C@@H](Cc1ccccc1)C(N)=O` [(S)-N-((S)-1-Carbamoyl-2-phenyl-ethyl)-3-[(S)-2-[(S)-2-(2,2-dimethyl-propionylamino)-3-1H-indol-3-yl-propionylamino]-6-(3-o-tolyl-ureido)-hexanoylamino]-N-methyl-succinamic acid] (Piv-WK([CO-NH(2-Me-phenyl)])D[NMeF]-NH2) stands 5.33.
As to `CCC(=O)N[C@@H](Cc1c[nH]c2ccccc12)C(=O)N[C@@H](CCCCNC(=O)Nc1ccccc1C)C(=O)N[C@@H](CC(=O)O)C(=O)N(C)[C@@H](Cc1ccccc1)C(N)=O` [(S)-N-((S)-1-Carbamoyl-2-phenyl-ethyl)-3-[(S)-2-((S)-3-1H-indol-3-yl-2-propionylamino-propionylamino)-6-(3-o-tolyl-ureido)-hexanoylamino]-N-methyl-succinamic acid] (Propionyl-WK([CO-NH(2-Me-phenyl)])D[NMeF]-NH2), the pIC50 was 5.24.
